Test system: not given
Test: not given
Settings: not given

SMILES | melting point [°C]
O=c1ccn(-c2cccc(C(F)(F)F)c2)nc1-c1ccnn1-c1ccc(Cl)cc1 [Example 3, 3-[1-(4-Chlorophenyl)-1H-pyrazol-5-yl]-1-[3-(trifluoromethyl)phenyl]pyridazin-4(1H)-one] | 166 to 167
O=c1ccn(-c2ccncc2)nc1-c1ccnn1-c1ccccc1 [Example 31, 3-(1-Phenyl-1H-pyrazol-5-yl)-1-pyridin-4-ylpyridazin-4(1H)-one] | 202 to 203
CC(C)n1nccc1-c1nn(-c2cccc(C(F)(F)F)c2)ccc1=O [Example 33, 3-[1-(1-Methylethyl)-1H-pyrazol-5-yl]-1-[3-(trifluoromethyl)phenyl]pyridazin-4(1H)-one] | 183 to 184
CC(C)Cn1nccc1-c1nn(-c2cccc(C(F)(F)F)c2)ccc1=O [Example 34, 3-[1-(2-Methylpropyl)-1H-pyrazol-5-yl]-1-[3-(trifluoromethyl)phenyl]pyridazin-4(1H)-one] | 120 to 121
O=c1ccn(-c2cccc(C(F)(F)F)c2)nc1-c1ccnn1-c1ccccn1 [Example 35, 3-(1-Pyridin-2-yl-1H-pyrazol-5-yl)-1-[3-(trifluoromethyl)phenyl]pyridazin-4(1H)-one] | 189 to 190
O=c1ccn(-c2cccc(Oc3nc4ccccc4[nH]3)c2)nc1-c1ccnn1-c1ccccc1 [Example 37, 1-[3-(1H-Benzimidazol-2-yloxy)phenyl]-3-(1-phenyl-1H-pyrazol-5-yl)pyridazin-4(1H)-one] | 149 to 150
O=c1ccn(-c2cccc(C(F)(F)F)c2)nc1-c1ncnn1-c1ccccc1 [Example 42, 3-(1-Phenyl-1H-1,2,4-triazol-5-yl)-1-[3-(trifluoromethyl)phenyl]pyridazin-4(1H)-one] | 167 to 168
O=c1c(OC(F)F)cn(-c2cccc(C(F)(F)F)c2)nc1-c1ccnn1-c1ccccc1 [Example 62, 5-(Difluoromethoxy)-3-(1-phenyl-1H-pyrazol-5-yl)-1-[3-(trifluoromethyl)phenyl]pyridazin-4(1H)-one] | 132 to 134
O=c1c(O)cn(-c2ccccc2F)nc1-c1ccnn1-c1ccccc1 [Example 63, 1-(2-Fluorophenyl)-5-hydroxy-3-(1-phenyl-1H-pyrazol-5-yl)pyridazin-4(1H)-one] | 218 to 220
CC(C)n1cc(-c2nn(-c3cccc(C(F)(F)F)c3)ccc2=O)c(-c2ccccc2)n1 [Example 77, 3-[1-(1-Methylethyl)-3-phenyl-1H-pyrazol-4-yl]-1-[3-(trifluoromethyl)phenyl]pyridazin-4(1H)-one] | 138 to 140

Test system: Male ICR mice
Test: Improvement of MK-801-induced prepulse inhibition (PPI) deficits
Type: in vivo
Settings: 0.3 mg/kg, MK-801 0.3 mg/kg s.c., FIG. 3
From the text: Male ICR mice were supplied by CLEA Japan, Inc (Japan). After arrival to the vivarium, animals were allowed a minimum of 1 week for acclimation. They were housed under a 12:12-h light/dark cycle in a temperature- and humidity-controlled laboratory and allowed food and water ad libitum. The care and use of the animals and the experimental protocols used in this research were approved by the Experimental Animal Care and Use Committee of Takeda Pharmaceutical Company, Ltd (Osaka, Japan).
The compounds were suspended in 0.5% methylcellulose in saline or distilled water, and administered by intraperitoneally (i.p.) or orally (p.o.), respectively. Methamphetamine (Dainippon Sumitomo Pharma Co., Ltd.) and MK-801 (Sigma-Aldrich, St Louis, Mo.) were dissolved in saline, and administered subcutaneously (s.c.). […]
PPI is a measure of sensorimotor gating and is one of a few neuropsychological measures in which humans and rodents can be evaluated in a similar fashion (Psychopharmacology (Berl) 2001, vol. 156: 117-154). We evaluated whether compound could reverse PPI deficits induced by MK-801 using male ICR mice. […] Placement of mice inside the cylinders allowed the whole-body startle responses induced by the acoustic stimuli to be measured via the transduction of movement into analog signals by a piezoelectric unit attached to the platform. […]

SMILES | MK-801-induced PPI deficits
Cc1nc2n(c(=O)c1CCN1CCC(c3noc4cc(F)ccc34)CC1)CCCC2 [Risperidone] | significantly reversed

— patent publication US9550756B2, “Pyridazinone compounds as phosphodiesterase inhibitors and methods of treating disorders” (Takeda Pharmaceutical Company Limited, priority 2009, dated 2017)
